Measurements as given in patent publication US20170112791A1, “SOLID FORMULATIONS CONTAINING OMEGA-3 AND RESVERATROL” (SIGMA-TAU INDUSTRIE FARMACEUTICHE RIUNITE S.P.A., priority 2014, published 2017).

Assays:
[1] = Stability after autoxidation induced by radiation (light, 24 hours); type: physicochemical; details: initial tests (Tables 2 and 3: radiation and high temperature)
Procedure: (§1) The HPLC Analysis was the analysis performed in order to evaluate the stability of the formulations. It was performed using a Column Symmetry C-18 4.6×150 mm, a solution of CH3CN/CH3OH/H2O 45/45/10 as eluent, a flow of 1 ml/min and a Mass spectrometry Detector. The percent amount of EPA and DHA detected are expressed as % by weight. Other stability tests were also performed:
Stability analysis after autoxidation induced by radiation and by high temperature was performed according to the following procedure: • Autoxidation induced by radiation: an amount of 100 mg of the formulation is dispersed in a 5 cm diameter Petri dish, which is placed at a distance of 12 cm from the light source and exposed to light for 24 hours. The light source is constituted by a 13 W lamp with an emission spectrum of from 300 to 640 nm, with peaks at: 440, 490, 540, 590 and 610 nm. The test is carried out at 22° C. at 60% RH • autoxidation induced by high temperature: an amount of 100 mg of the formulation is placed in an amber container and put in a stove at 60° C. for 1 month

[2] = Stability analysis of solid formulations on storage (HPLC recovery of EPA and DHA); type: physicochemical
Procedure: The formulations were divided into 3 groups and left respectively for 3 and 6 months at 25° C. at 60% RH (relative humidity), for 3 and 6 months at 30° C. at 60% RH or for 3 and 6 months at 40° C. at 70% RH.
as §1
n-3 PUFA were added to Neusilin U.S.-2 in small portions, manually mixing up to obtain a homogeneous solid. Stability tests are carried out at 25° C. at 60% RH, 30° C. at 60% RH and 40° C. at 70% RH as described above for 1, 3 and 6 months.

| SMILES | improvement of stability of EPA and DHA in the initial tests [1] | ability to maintain stable solid formulations containing omega-3 for longer periods ([2]; data of Table 4, 3 months) | antioxidant power with respect of that of α-tocopherol ([2]; from recovery after 3 months at 40° C., 1% antioxidant) |
| --- | --- | --- | --- |
| CCCCCCCCCCCCCCCC(=O)OC[C@H](O)[C@H]1OC(=O)C(O)=C1O [Ascorbyl palmitate, ascorbyl palmitate] | able to improve the stability |  |  |
| COC1=C(OC)C(=O)C(C/C=C(\C)CC/C=C(\C)CC/C=C(\C)CC/C=C(\C)CC/C=C(\C)CC/C=C(\C)CC/C=C(\C)CC/C=C(\C)CC/C=C(\C)CCC=C(C)C)=C(C)C1=O [Coenzyme Q10] | able to improve the stability |  |  |
| Oc1ccc(/C=C/c2cc(O)cc(O)c2)cc1 [Resveratrol, 3,5,4′-trihydroxy-trans-stilbene] | able to improve the stability | the only natural antioxidant able to maintain stable solid formulations containing omega-3 for longer periods | twice |
| Cc1c(C)c2c(c(C)c1O)CC[C@@](C)(CCC[C@H](C)CCC[C@H](C)CCCC(C)C)O2 [α-tocopherol] | able to improve the stability |  |  |
